Data published in patent US20230142338A1, “THIOPHENYL DERIVATIVES USEFUL FOR MODULATING NUCLEIC ACID SPLICING” (REMIX THERAPEUTICS INC., priority 2020, published 2023).

Key:
Assay type in all cases: cell-based
[1] = test system: Target C CJ mRNA; experiment: Gene panel canonical junction qPCR assay: Target C; settings: Table 3, concentration having 50% response in CJ decrease, read-out: Target C IC50 (decrease in CJ mRNA levels)
Description: (§1) Compounds described herein were used to modulate RNA transcript abundance in cells. The expression of a target mRNA was measured by detecting the formation of an exon-exon junction in the canonical transcript (CJ). A compound mediated exon-inclusion event was detected by observing an increase in formation of a new junction with an alternative exon (AJ). Real-time qPCR assays were used to detect these splicing switches and interrogate the potency of various compounds towards different target genes. A high-throughput real time quantitative PCR (RT-qPCR) assay was developed to measure these two isoforms of the mRNA (CJ and AJ) for an exemplary gene, HTT, together with a control housekeeping gene, GAPDH or GUSB or PPIA, used for normalization. Briefly, the A673 or K562 cell line was treated with various compounds described herein (e.g., compounds of Formula (I)). After treatment, the levels of the HTT mRNA targets were determined from each sample of cell lysate by cDNA synthesis followed by qPCR.
(§2) The A673 cell line was cultured in DMEM with 10% FBS. Cells were diluted with full growth media and plated in a 96-well plate (15,000 cells in 100 ul media per well). The plate was incubated at 37° C. with 5% CO2 for 24 hours to allow cells to adhere. An 11-point 3-fold serial dilution of the compounds was made in DMSO then diluted in media in an intermediate plate. Compounds were transferred from the intermediate plate to the cell plate with the top dose at a final concentration of 10 uM in the well. Final DMSO concentration was kept at or below 0.25%. The cell plate was returned to the incubator at 37° C. with 5% CO2 for an additional 24 hours.
(§3) The K562 cell line was cultured in IMDM with 10% FBS. For K562, cells were diluted with full growth media and plated in either a 96-well plate (50,000 cells in 50 uL media per well) or a 384-well plate (8,000-40,000 cells in 45 uL media per well). An 11-point 3-fold serial dilution of the compounds were made in DMSO then diluted in media in an intermediate plate. Compound was transferred from the intermediate plate to the cell plate with the top dose at a final concentration of 10 uM in the well. Final DMSO concentration was kept at or below 0.25%. Final volume was 100 uL for 96-well plate and 50 uL for 384-well plate. The cell plate was then placed in an incubator at 37° C. with 5% CO2 for 24 hours.
(§4) The cells were then gently washed with 50 uL-100 uL cold PBS before proceeding to addition of lysis buffer. 30 uL-50 uL of room temperature lysis buffer with DNAse I (and optionally RNAsin) was added to each well. Cells were shaken/mixed thoroughly at room temperature for 5-10 minutes for lysis to take place and then 3 uL-5 uL of room temperature stop solution was added and wells were shaken/mixed again. After 2-5 minutes, the cell lysate plate was transferred to ice for RT-qPCR reaction setup. The lysates could also be frozen at −80° C. for later use.
(§5) In some cases, a direct lysis buffer was used. An appropriate volume of 3× lysis buffer (10 mM Tris, 150 mM NaCl, 1.5%-2.5% Igepal and 0.1-1 U/uL RNAsin, pH 7.4) was directly added to either K562 or A673 cells in media and mixed by pipetting 3 times. The plates were then incubated at room temperature with shaking/rocking for 20-50 minutes to allow for lysis to take place. After this time, the cell lysate plate was transferred to ice to set up for the RT-qPCR reactions. The lysates could also be frozen at −80° C. for later use.
(§6) To set up 10 uL RT-qPCR reactions, cell lysates were transferred to 384-well qPCR plates containing the master mix according to the table below. The plates were sealed, gently vortexed, and spun down before the run. The volumes were adjusted accordingly in some instances where the reaction was carried in 20 uL. The table below summarizes the components of the RT-qPCR reactions:
(§7) The RT-qPCR reaction was performed using a QuantStudio (ThermoFisher) under the following fast cycling conditions. […]

[2] = test system: HTT CJ mRNA; experiment: Gene panel canonical junction qPCR assay: HTT; settings: Table 3, concentration having 50% response in CJ decrease, read-out: HTT IC50 (decrease in CJ mRNA levels)
Description: as §1, §2, §3, §4, §5, §6, §7

[3] = test system: HTT AJ mRNA; experiment: Splicing assay (RT-qPCR): increase in HTT alternative junction (AJ) mRNA; settings: A673 or K562 cells, 24 hours treatment; concentration having 50% response in AJ mRNA increase
Description: as §1, §2, §3, §4, §5, §6, §7

[4] = test system: HTT CJ mRNA; experiment: Splicing assay (RT-qPCR): decrease in HTT canonical junction (CJ) mRNA; settings: A673 or K562 cells, 24 hours treatment; concentration having 50% response in CJ mRNA decrease
Description: as §1, §2, §3, §4, §5, §6, §7

[5] = test system: SMN2 CJ mRNA; experiment: Gene panel canonical junction qPCR assay: SMN2; settings: Table 3, concentration having 50% response in CJ decrease, read-out: SMN2 IC50 (decrease in CJ mRNA levels)
Description: as §1, §2, §3, §4, §5, §6, §7

IC50 [1] | IC50 [2] | IC50 [5] | SMILES | AC50 [3] | AC50 [4]
0.1 to 1 µM | 0.1 to 1 µM | < 0.1 µM | Cc1cn2nc(NC(=O)c3sc([C@@H]4CCN[C@H](C)C4)cc3F)cc(C)c2n1 [Compound 101, N-[2,8-dimethylimidazo[1,2-b]pyridazin-6-yl]-3-fluoro-5-[(2R,4R)-2-methylpiperidin-4-yl] thiophene-2-carboxamide] | 0.1 to 1 µM | 0.1 to 1 µM
1 to 10 µM | 0.1 to 1 µM | 0.1 to 1 µM | Cc1cn2nc(NC(=O)c3sc([C@H]4CCN[C@@H](C)C4)cc3F)cc(C)c2n1 [Compound 102, N-[2,8-dimethylimidazo[1,2-b]pyridazin-6-yl]-3-fluoro-5-[(2S,4S)-2-methylpiperidin-4-yl] thiophene-2-carboxamide] | 1 to 10 µM | 0.1 to 1 µM
1 to 10 µM | 0.1 to 1 µM | < 0.1 µM | Cc1cn2nc(NC(=O)c3sc([C@H]4CCN[C@H](C)C4)cc3F)cc(C)c2n1 [Compound 103, N-[2,8-dimethylimidazo[1,2-b]pyridazin-6-yl]-3-fluoro-5-[(2R,4S)-2-methylpiperidin-4-yl] thiophene-2-carboxamide] | 0.1 to 1 µM | 0.1 to 1 µM
0.1 to 1 µM | < 0.1 µM | < 0.1 µM | Cc1cn2nc(NC(=O)c3sc([C@@H]4CCN[C@@H](C)C4)cc3F)cc(C)c2n1 [Compound 104, N-[2,8-dimethylimidazo[1,2-b]pyridazin-6-yl]-3-fluoro-5-[(2S,4R)-2-methylpiperidin-4-yl]thiophene-2-carboxamide] | 0.1 to 1 µM | < 0.1 µM
– | – | – | Cc1cn2cc(-c3cc(F)c(C(=O)NC4CCN(C)CC4)s3)nc2c(C)n1 [Compound 109, 5-[6,8-dimethylimidazo[1,2-a]pyrazin-2-yl]-3-fluoro-N-(1-methylpiperidin-4-yl)thiophene-2-carboxamide] | > 10 µM | 1 to 10 µM
– | – | – | Cc1cn2cc(-c3cc(F)c(C(=O)N[C@H]4CCN[C@@H](C)C4)s3)nc2c(C)n1 [Compound 112] | > 10 µM | > 10 µM
– | – | – | Cc1cn2cc(-c3cc(F)c(C(=O)N[C@H]4CCN[C@H](C)C4)s3)nc2c(C)n1 [Compound 113] | > 10 µM | 0.1 to 1 µM
1 to 10 µM | 0.1 to 1 µM | < 0.1 µM | Cc1cn2cc(NC(=O)c3sc([C@@H]4CCN[C@H](C)C4)cc3F)cc(F)c2n1 [Compound 114, 3-fluoro-N-[8-fluoro-2-methylimidazo[1,2-a]pyridin-6-yl]-5-[(2R,4R)-2-methylpiperidin-4-yl]thiophene-2-carboxamide] | 0.1 to 1 µM | 0.1 to 1 µM
– | 0.1 to 1 µM | 0.1 to 1 µM | Cc1cn2cc(NC(=O)c3sc([C@H]4CCN[C@@H](C)C4)cc3F)cc(F)c2n1 [Compound 115, 3-fluoro-N-[8-fluoro-2-methylimidazo[1,2-a]pyridin-6-yl]-5-[(2S,4S)-2-methylpiperidin-4-yl]thiophene-2-carboxamide] | 0.1 to 1 µM | 0.1 to 1 µM
1 to 10 µM | 0.1 to 1 µM | < 0.1 µM | Cc1cn2cc(NC(=O)c3sc([C@@H]4CCN[C@@H](C)C4)cc3F)cc(F)c2n1 [Compound 116, 3-fluoro-N-[8-fluoro-2-methylimidazo[1,2-a]pyridin-6-yl]-5-[(2S,4R)-2-methylpiperidin-4-yl]thiophene-2-carboxamide] | 0.1 to 1 µM | 0.1 to 1 µM
1 to 10 µM | 0.1 to 1 µM | 0.1 to 1 µM | Cc1cn2cc(NC(=O)c3sc([C@H]4CCN[C@H](C)C4)cc3F)cc(F)c2n1 [Compound 117, 3-fluoro-N-[8-fluoro-2-methylimidazo[1,2-a]pyridin-6-yl]-5-[(2R,4S)-2-methylpiperidin-4-yl]thiophene-2-carboxamide] | 1 to 10 µM | 0.1 to 1 µM
– | > 0.01 µM | 0.1 to 1 µM | Cc1cn2cc(NC(=O)c3ccc(N4CCNC(C)C4)s3)cc(F)c2n1 (stereo not drawn) [Compound 122, N-[8-fluoro-2-methylimidazo[1,2-a]-pyridin-6-yl]-5-(3-methylpip-erazin-1-yl)-thiophene-2-carboxamide] | > 10 µM | > 10 µM
– | 1 to 10 µM | 0.1 to 1 µM | Cc1cn2cc(NC(=O)c3sc(N4CCNCC4)cc3F)cc(F)c2n1 [Compound 126, 3-fluoro-N-[8-fluoro-2-methylimidazo[1,2-a]pyridin-6-yl]-5-(piperazin-1-yl)thiophene-2-carboxamide] | 1 to 10 µM | 1 to 10 µM
– | 1 to 10 µM | 0.1 to 1 µM | Cc1cn2cc(NC(=O)c3sc(N4CCNC(C)C4)cc3F)cc(F)c2n1 (stereo not drawn) [Compound 128, 3-fluoro-N-[8-fluoro-2-methylimidazo[1,2-a]pyridin-6-yl]-5-(3-methylpiperazin-1-yl)thiophene-2-carboxamide] | > 10 µM | 1 to 10 µM
– | – | – | CCC1CN(c2cc(F)c(C(=O)Nc3cc(F)c4nc(C)cn4c3)s2)CCN1 (stereo not drawn) [Compound 130, 5-(3-ethylpiperazin-1-yl)-3-fluoro-N-[8-fluoro-2-methylimidazo[1,2-a]pyridin-6-yl]thiophene-2-carboxamide] | > 10 µM | 1 to 10 µM
– | – | – | Cc1cn2cc(NC(=O)c3sc(N4CC5(CN(C)C5)C4)cc3F)cc(F)c2n1 [Compound 135, 3-fluoro-N-[8-fluoro-2-methylimidazo[1,2-a]pyridin-6-yl]-5-[6-methyl-2,6-diazaspiro[3.3]heptan-2-yl]thiophene-2-carboxamide] | > 10 µM | 1 to 10 µM
– | – | – | Cc1cn2cc(NC(=O)c3sc(N4CCC(N(C)C)CC4)cc3F)cc(F)c2n1 [Compound 140, 5-[4-(dimethylamino)piperidin-1-yl]-3-fluoro-N-[8-fluoro-2-methylimidazo[1,2-a]pyridin-6-yl]thiophene-2-carboxamide] | 0.1 to 1 µM | 1 to 10 µM
– | 0.1 to 1 µM | < 0.1 µM | Cc1cn2cc(NC(=O)c3sc(C4CCNCC4)cc3F)cc(F)c2n1 [Compound 144, 3-fluoro-N-[8-fluoro-2-methylimidazo[1,2-a]pyridin-6-yl]-5-(piperidin-4-yl) thiophene-2-carboxamide] | 0.1 to 1 µM | 0.1 to 1 µM
– | – | – | Cc1cn2cc(NC(=O)c3sc(C4CC(C)(C)NC(C)(C)C4)cc3F)cc(F)c2n1 [Compound 148, 3-fluoro-N-[8-fluoro-2-methylimidazo[1,2-a]pyridin-6-yl]-5-(2,2,6,6-tetramethylpiperidin-4-yl)thiophene-2-carboxamide] | 0.1 to 1 µM | 0.1 to 1 µM
– | – | – | Cc1cn2cc(NC(=O)c3sc(N4CCNC(C)C4)cc3F)nc2c(C)n1 (stereo not drawn) [Compound 168, N-[6,8-dimethylimidazo[1,2-a]pyrazin-2-yl]-3-fluoro-5-(3-methylpiperazin-1-yl)thiophene-2-carboxamide] | > 10 µM | 1 to 10 µM
– | > 0.01 µM | 1 to 10 µM | Cc1cn2cc(NC(=O)c3sc(N4CCNC(C)C4)c(Cl)c3Cl)cc(F)c2n1 (stereo not drawn) [Compound 186] | > 10 µM | > 10 µM
